From patent US8575091B1, “Amylin analogues and pharmaceutical compositions thereof” (Novo Nordisk A/S, priority 2012, dated 2013) come the findings set out here.

The target of one experiment is T1, human amylin receptor (Homo sapiens, UniProt O60896+P30988).
T1 construct: expressed in transfected cells
T1 sequence (P30988 25-474): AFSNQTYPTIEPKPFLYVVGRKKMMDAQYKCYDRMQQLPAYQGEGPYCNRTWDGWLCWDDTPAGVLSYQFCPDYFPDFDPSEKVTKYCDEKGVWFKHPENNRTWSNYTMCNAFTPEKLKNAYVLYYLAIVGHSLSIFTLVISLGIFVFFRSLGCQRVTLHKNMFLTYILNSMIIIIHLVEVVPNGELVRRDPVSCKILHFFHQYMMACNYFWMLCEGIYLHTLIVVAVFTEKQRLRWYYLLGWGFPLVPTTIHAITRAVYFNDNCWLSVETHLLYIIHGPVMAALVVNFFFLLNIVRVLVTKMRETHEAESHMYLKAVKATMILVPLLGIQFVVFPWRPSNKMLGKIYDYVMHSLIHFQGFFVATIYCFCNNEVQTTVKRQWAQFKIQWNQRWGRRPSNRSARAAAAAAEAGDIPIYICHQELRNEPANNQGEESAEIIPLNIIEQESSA
T1 sequence (O60896 24-148 partner): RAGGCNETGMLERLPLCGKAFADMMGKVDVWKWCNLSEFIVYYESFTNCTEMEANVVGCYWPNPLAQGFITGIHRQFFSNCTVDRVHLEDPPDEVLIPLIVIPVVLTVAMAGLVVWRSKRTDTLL
Briefly: Assay (V) binding to the human amylin receptor (SPA, 125I-rat amylin). The method, then:
The binding assay was performed using scintillation proximity assay (SPA) beads (RPNQ0001) from PerkinElmer and cell membranes from the Amylin 3(a)/CRE-luc cells (as described in Assay (II)) were used. Membranes were prepared in the following way; the cells were rinsed with PBS and incubated with Versene for approximately 5 min before harvesting. The cells were flushed with PBS and the cell-suspension was centrifuged for 5 min at 1000 rpm. […] The resulting pellet was resuspended in buffer 2 and protein concentration was measured (BCA protein Assay, Pierce). The homogenate was kept cold during the whole procedure. The membranes were kept at −80° C. until use. The assay was performed in a 384 well Optiplate (PerkinElmer) in a total volume of 40 ul. Membranes were mixed with SPA beads. Final concentration of membranes 35 ng/μL final and SPA beads was 0.05 mg/well. Test-compounds were dissolved in DMSO and further diluted in assay buffer (50 mM Hepes, pH 7.4, 1 mM CaCl2, 5 mM MgCl2, 0.1% OA and 0.02% Tween20). […] Samples were analyzed on TopCounter™ (Packard). The IC50 was calculated using (one site binding competition analysis) GraphPad Prism5 as a measure of receptor affinity.

The target in experiment [1] is T2, human amylin receptor (amylin 3(a) receptor: human calcitonin receptor + RAMP-3) (Homo sapiens, UniProt O60896+P30988).
T2 construct: expressed in transfected cells
T2 sequence (P30988 25-474): T1 sequence (P30988 25-474)
T2 sequence (O60896 24-148 partner): T1 sequence (O60896 24-148 partner)
Briefly: Assay (II)a functional assay, human amylin receptor (CRE luciferase, BHK cells). Format: cell-based.

The mark [2] stands for this setting: Table 7b, human calcitonin receptor binding IC50 divided by human amylin receptor binding IC50.
Setting [3] is: Table 7c, human calcitonin receptor binding IC50 divided by human amylin receptor binding IC50.
The mark [4] stands for this setting: human binding ratio, included for comparison.
[5] abbreviates: Table 6, human functional selectivity (hCTR EC50 / hAmylin-R EC50).

Structures are written as SMILES. Numbered stars: 1 amine (or outer) side, 2 acyl side, 3 side chain; on linkers, the order of the positions; unused ones are H or OH. Bridge positions count the residues as written; N and C are the ends. Side chains are listed from the residue outwards. Peptide text beside a SMILES is read from it. * marks the point of attachment. C20 diacid = O=C(O)CCCCCCCCCCCCCCCCCCC(=O)*; γGlu = O=C(O)[C@H](CCC(=O)[*:2])N[*:1]; AEEA = NCCOCCOCC(=O)O

In the case of `CC[C@H](C)[C@H](NC(=O)[C@@H]1CCCN1C(=O)CNC(=O)[C@H](Cc1ccccc1)NC(=O)[C@H](CC(N)=O)NC(=O)[C@@H]1CCCN1C(=O)[C@H](CO)NC(=O)[C@H](CO)NC(=O)[C@H](Cc1c[nH]cn1)NC(=O)[C@H](CCCNC(=N)N)NC(=O)[C@H](CC(C)C)NC(=O)[C@H](Cc1ccccc1)NC(=O)[C@H](CCC(=O)O)NC(=O)[C@H](C)NC(=O)[C@H](CC(C)C)NC(=O)[C@H](CCCNC(=N)N)NC(=O)[C@H](CCC(N)=O)NC(=O)[C@@H](NC(=O)[C@H](C)NC(=O)[C@@H]1CSSC[C@H](NC(=O)[C@H](CCCCN)NC(=O)CC[C@H](NC(=O)CCCCCCCCCCCCCCCCCCC(=O)O)C(=O)O)C(=O)N[C@@H](CC(N)=O)C(=O)N[C@@H]([C@@H](C)O)C(=O)N[C@@H](C)C(=O)N[C@@H]([C@@H](C)O)C(=O)N1)[C@@H](C)O)C(=O)N[C@@H](CC(C)C)C(=O)N1CCC[C@H]1C(=O)N1CCC[C@H]1C(=O)N[C@H](C(=O)N[C@@H](CC(N)=O)C(=O)N[C@H](C(=O)NCC(=O)N[C@@H](CO)C(=O)N[C@@H](CC(N)=O)C(=O)N[C@H](C(=O)N[C@@H](Cc1ccc(O)cc1)C(N)=O)[C@@H](C)O)C(C)C)[C@@H](C)O` [Example 6] ({C20 diacid-γGlu}-KCNTATCATQRLAEFLRHSSPNFGPILPPTNVGSNTY-NH2; disulfide 2-7), the “Ratio hCT/hAmylin binding” value at human amylin receptor (setting [2]), at human amylin receptor (setting [3]) and at human amylin receptor (setting [4]) was 20.0 throughout. Besides, the “Ratio hCT/hAmylin funct.” value is recorded as 5.7 in experiment [1] (setting [5]); 5.7 in experiment [1] (Table 6a, human functional selectivity (hCTR EC50 / hAmylin-R EC50), at least 5); 5.7 in experiment [1] (Table 6i, hCTR funct. EC50 / hAmylin-R funct. EC50).

For `CC[C@H](C)[C@H](NC(=O)[C@H](C)NC(=O)CNC(=O)[C@H](Cc1ccccc1)NC(=O)[C@H](CC(N)=O)NC(=O)[C@@H]1CCCN1C(=O)[C@H](CO)NC(=O)[C@H](CO)NC(=O)[C@H](Cc1c[nH]cn1)NC(=O)[C@H](CCCNC(=N)N)NC(=O)[C@H](CC(C)C)NC(=O)[C@H](Cc1ccccc1)NC(=O)[C@H](CCC(=O)O)NC(=O)[C@H](C)NC(=O)[C@H](CC(C)C)NC(=O)[C@H](CCCNC(=N)N)NC(=O)[C@H](CCC(N)=O)NC(=O)[C@@H](NC(=O)[C@H](C)NC(=O)[C@@H]1CSSC[C@H](NC(=O)[C@H](CCCCN)NC(=O)CC[C@H](NC(=O)CCCCCCCCCCCCCCCCCCC(=O)O)C(=O)O)C(=O)N[C@@H](CC(N)=O)C(=O)N[C@@H]([C@@H](C)O)C(=O)N[C@@H](C)C(=O)N[C@@H]([C@@H](C)O)C(=O)N1)[C@@H](C)O)C(=O)N1CCC[C@H]1C(=O)N[C@@H](CO)C(=O)N[C@@H](CO)C(=O)N[C@H](C(=O)N[C@@H](CC(N)=O)C(=O)N[C@H](C(=O)NCC(=O)N[C@@H](CO)C(=O)N[C@@H](CC(N)=O)C(=O)N[C@H](C(=O)N1CCC[C@H]1C(N)=O)[C@@H](C)O)C(C)C)[C@@H](C)O` [Example 8] ({C20 diacid-γGlu}-KCNTATCATQRLAEFLRHSSPNFGAIPSSTNVGSNTP-NH2; disulfide 2-7), the “Ratio hCT/hAmylin binding” value at human amylin receptor (setting [4]) worked out at 0.5. In addition, in experiment [1] (setting [5]), the “Ratio hCT/hAmylin funct.” value is on record as 1.1.

Regarding `CC[C@H](C)[C@H](NC(=O)[C@H](C)NC(=O)CNC(=O)[C@H](Cc1ccccc1)NC(=O)[C@H](CC(N)=O)NC(=O)[C@@H]1CCCN1C(=O)[C@H](CO)NC(=O)[C@H](CO)NC(=O)[C@H](Cc1c[nH]cn1)NC(=O)[C@H](CCCNC(=N)N)NC(=O)[C@H](CC(C)C)NC(=O)[C@H](Cc1ccccc1)NC(=O)[C@H](CC(=O)O)NC(=O)[C@H](C)NC(=O)[C@H](CC(C)C)NC(=O)[C@H](CCCNC(=N)N)NC(=O)[C@H](CCC(N)=O)NC(=O)[C@@H](NC(=O)[C@H](C)NC(=O)[C@@H]1CSSC[C@H](NC(=O)[C@H](CCCCN)NC(=O)CC[C@H](NC(=O)CCCCCCCCCCCCCCCCCCC(=O)O)C(=O)O)C(=O)N[C@@H](CC(N)=O)C(=O)N[C@@H]([C@@H](C)O)C(=O)N[C@@H](C)C(=O)N[C@@H]([C@@H](C)O)C(=O)N1)[C@@H](C)O)C(=O)N1CCC[C@H]1C(=O)N[C@@H](CO)C(=O)N[C@@H](CO)C(=O)N[C@H](C(=O)N[C@@H](CC(N)=O)C(=O)N[C@H](C(=O)NCC(=O)N[C@@H](CO)C(=O)N[C@@H](CC(N)=O)C(=O)N[C@H](C(=O)N1CCC[C@H]1C(N)=O)[C@@H](C)O)C(C)C)[C@@H](C)O` [Example 10] ({C20 diacid-γGlu}-KCNTATCATQRLADFLRHSSPNFGAIPSSTNVGSNTP-NH2; disulfide 2-7), the “Ratio hCT/hAmylin binding” value at human amylin receptor (setting [4]) is recorded as 1.2. The “Ratio hCT/hAmylin funct.” value in experiment [1] (setting [5]) is given as 1.0.

Take `CC[C@H](C)[C@H](NC(=O)[C@H](C)NC(=O)CNC(=O)[C@H](Cc1ccccc1)NC(=O)[C@H](CC(N)=O)NC(=O)[C@@H]1CCCN1C(=O)[C@H](CO)NC(=O)[C@H](CO)NC(=O)[C@H](Cc1c[nH]cn1)NC(=O)[C@H](CCCNC(=N)N)NC(=O)[C@H](CC(C)C)NC(=O)[C@H](Cc1ccccc1)NC(=O)[C@H](CCC(=O)O)NC(=O)[C@H](C)NC(=O)[C@H](CC(C)C)NC(=O)[C@H](CCCNC(=N)N)NC(=O)[C@H](CCC(N)=O)NC(=O)[C@@H](NC(=O)[C@H](C)NC(=O)[C@@H]1CSSC[C@H](NC(=O)[C@H](CCCCN)NC(=O)CC[C@H](NC(=O)CCCCCCCCCCCCCCCCCCC(=O)O)C(=O)O)C(=O)N[C@@H](CC(N)=O)C(=O)N[C@@H]([C@@H](C)O)C(=O)N[C@@H](C)C(=O)N[C@@H]([C@@H](C)O)C(=O)N1)[C@@H](C)O)C(=O)N1CCC[C@H]1C(=O)N[C@@H](CO)C(=O)N[C@@H](CO)C(=O)N[C@H](C(=O)N[C@@H](CC(N)=O)C(=O)N[C@H](C(=O)NCC(=O)N[C@@H](CO)C(=O)N[C@@H](CC(=O)O)C(=O)N[C@H](C(=O)N1CCC[C@H]1C(N)=O)[C@@H](C)O)C(C)C)[C@@H](C)O` [Example 11] ({C20 diacid-γGlu}-KCNTATCATQRLAEFLRHSSPNFGAIPSSTNVGSDTP-NH2; disulfide 2-7): at human amylin receptor (setting [4]), the “Ratio hCT/hAmylin binding” value stood at 1.0. Also, the “Ratio hCT/hAmylin funct.” value in experiment [1] (setting [5]) is listed as 0.9.

For `CC[C@H](C)[C@H](NC(=O)[C@H](C)NC(=O)CNC(=O)[C@H](Cc1ccccc1)NC(=O)[C@H](CC(N)=O)NC(=O)[C@@H]1CCCN1C(=O)[C@H](CO)NC(=O)[C@H](CO)NC(=O)[C@H](Cc1c[nH]cn1)NC(=O)[C@H](CCCNC(=N)N)NC(=O)[C@H](CC(C)C)NC(=O)[C@H](Cc1ccccc1)NC(=O)[C@H](CC(N)=O)NC(=O)[C@H](C)NC(=O)[C@H](CC(C)C)NC(=O)[C@H](CCCNC(=N)N)NC(=O)[C@H](CCC(N)=O)NC(=O)[C@@H](NC(=O)[C@H](C)NC(=O)[C@@H]1CSSC[C@H](NC(=O)[C@@H](N)CCCCNC(=O)COCCOCCNC(=O)CC[C@H](NC(=O)CCCCCCCCCCCCCCCCCCC(=O)O)C(=O)O)C(=O)N[C@@H](CC(N)=O)C(=O)N[C@@H]([C@@H](C)O)C(=O)N[C@@H](C)C(=O)N[C@@H]([C@@H](C)O)C(=O)N1)[C@@H](C)O)C(=O)N1CCC[C@H]1C(=O)N[C@@H](CO)C(=O)N[C@@H](CO)C(=O)N[C@H](C(=O)N[C@@H](CC(N)=O)C(=O)N[C@H](C(=O)NCC(=O)N[C@@H](Cc1c[nH]cn1)C(=O)N[C@@H](CC(N)=O)C(=O)N[C@H](C(=O)N[C@@H](Cc1ccc(O)cc1)C(N)=O)[C@@H](C)O)C(C)C)[C@@H](C)O` [Example 76] (H-K([AEEA-γGlu-C20 diacid])CNTATCATQRLANFLRHSSPNFGAIPSSTNVGHNTY-NH2; disulfide 2-7 (inferred); N-terminus and C-terminus assumed), the “Ratio hCT/hAmylin binding” value at human amylin receptor (setting [2]), on human amylin receptor (setting [3]) and on human amylin receptor (setting [4]) was 80.0 each time.
